Test in all cases: inhibition of tumour cell growth, NCI panel, 48 h
Assay [1] concerns NCI-H226 lung.
In assay [2] the test system is OVCAR-5 ovarian.
Assay [3] concerns UACC-62 melanoma.
Assay [4] relates to COLO 205 colon.
Assay [5] concerns OVCAR-4 ovarian.
The test system of assay [6] is NCI/ADR-RES ovarian.
Assay [7] concerns 786-0 renal.
The subject of assay [8] is NCI-H460 lung.
The test system of assay [9] is OVCAR-3 ovarian.
Assay [10] has as its system LOX IMVI melanoma.
Assay [11] deals with EKVX NSCLC.
Assay [12] has as its system CCRF-CEM leukemia.

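Exposure lasted 48 hours, with cells grown in 96-well plates and compounds tested at five concentrations. GI50 marks 50% less growth. TGI marks complete inhibition of growth.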 Bounds are passed on as bounds.

As for `O=C(N/N=C/c1ccccc1)c1cccc2nc3ccccc3nc12`, the TGI in [1] was > 100 µM; in assay [2], > 100 µM; in assay [3] it was > 100 µM; in assay [4], 18 µM; in assay [5] it was > 100 µM; in assay [6] it was > 100 µM. Moreover, the TGI is > 100 µM in assay [7]; 31.4 µM in assay [8]; > 100 µM in assay [9]; > 100 µM in assay [10]; > 100 µM in [11]; > 100 µM in assay [12].

Regarding `Fc1ccc(C(OCCN2CC3CCC(C2)N3CCCc2ccccc2)c2ccc(F)cc2)cc1`, the TGI was found to be 13.1 µM in [1]; 23.3 µM in [2]; 21.3 µM in assay [3]; 2.74 µM in assay [4]; 16.4 µM in assay [5]; 15.2 µM in assay [6]. In addition, the TGI turned out to be 13.4 µM in assay [7]; 9.75 µM in assay [8]; 21.8 µM in [9]; 13 µM in assay [10]; 16.4 µM in assay [11]; 15.6 µM in [12].

As to `CC(=O)N(C(C)=O)c1cc2c3c(c1)CCCN3CCC2`, the TGI in assay [1], in [2], in assay [3], in assay [4], in assay [5] and in assay [6] was > 10 µM throughout. Further, the TGI in assay [7], in assay [8], in assay [9], in assay [10], in assay [11] and in assay [12] was > 10 µM each time.

With `ClCCCCCc1c2nc(c(CCCCCCl)c3ccc([nH]3)c(CCCCCCl)c3ccc([nH]3)c(CCCCCCl)c3nc1C=C3)C=C2`, the TGI in assay [1], in assay [2], in [3], in assay [4], in [5] and in assay [6] was > 100 µM throughout. The TGI in assay [7], in [8], in [9], in [10], in assay [11] and in assay [12] was > 100 µM throughout.

Turning to `CCOP(=O)(OCC)OC1c2[nH]cc(C(=O)OCc3ccccc3)c2-c2cc(C(=O)OC)[nH]c2C1OC` (configuration not stated), the TGI in assay [1] is 58.3 µM; in assay [2], > 96.1 µM; in [3] it was > 79.6 µM; in [4], > 100 µM; in assay [5] it was > 100 µM; in [6], 59.5 µM. In addition, the TGI in [7] was 27.4 µM; in assay [8] it was > 100 µM; in assay [9], 54.8 µM; in [10], > 41.4 µM; in assay [11], 70.7 µM; in [12], > 100 µM.

For the compound `CC1(C)[C@@H]2C[C@H]1c1cnc(-c3ccccn3)cc1C2CCCCC[C@@H]1c2cc(-c3ccccn3)ncc2[C@@H]2C[C@H]1C2(C)C` (some centres not stated), the TGI in [1] is 7.53 µM; in [2] it was > 100 µM; in assay [3], > 34 µM; in assay [4] it was > 32.8 µM; in assay [5], > 100 µM; in [6], > 100 µM. In addition, the TGI in assay [7] was 11.5 µM; in assay [8], 24.9 µM; in [9], > 100 µM; in [10] it was 19.3 µM; in [11], > 100 µM; in assay [12], 6.28 µM.

Take `COC(=O)CC1c2ccccc2N2C(=O)Cc3c([nH]c4ccccc34)C12` (configuration not stated): the TGI in [1], in assay [2], in [3], in assay [4], in assay [5] and in assay [6] was > 100 µM each time. In addition, the TGI in assay [7], in assay [8], in [9], in assay [10], in assay [11] and in [12] was > 100 µM throughout.

For the compound `CN1CC2CN(Cc3ccccc3)CCN2c2cccnc21` (configuration not stated), the TGI in [1], in [2], in assay [3], in assay [4], in assay [5] and in assay [6] was > 100 µM throughout. In addition, the TGI in [7] was > 100 µM; in assay [8], > 100 µM; in assay [9], > 100 µM; in assay [10], 49.4 µM; in assay [11], > 100 µM; in [12], > 100 µM.

As for `CCCCCCCCCCCCCCCCCCOCC(O)COP(=O)(O)OCC1OC(n2ccc(N)nc2=O)C(O)C1O` (configuration not stated), the TGI in assay [1] was > 100 µM; in assay [2], > 100 µM; in [3] it was 70.2 µM; in [4] it was 29.5 µM; in assay [5], > 100 µM; in [6], > 100 µM. The TGI in assay [7] is 26.5 µM; in [8], 14.8 µM; in assay [9], > 100 µM; in assay [10], 31.1 µM; in assay [11], > 100 µM; in [12], 18.6 µM.

With `O=C(N/N=C(/COc1ccccc1)N=Cc1cccnc1)c1ccncc1`, the TGI in assay [1], in assay [2], in [3], in [4], in assay [5] and in [6] was > 100 µM in each case. For the same compound, the TGI in assay [7], in assay [8], in assay [9], in assay [10], in assay [11] and in [12] was > 100 µM in each case.

Take `NS(=O)(=O)c1ccc(/C=C/c2ccc(O)cc2)cc1`: the GI50 is 11.1 µM in [1]; 3.4 µM in [3]; 36.9 µM in assay [5]; 19.1 µM in assay [10]; 4.5 µM in assay [12]. The TGI is 33.1 µM in assay [1]; > 100 µM in assay [2]; 20.4 µM in [3]; 35.3 µM in [4]; > 100 µM in assay [5]; > 100 µM in assay [6]. Further, the TGI is 89.6 µM in [7]; > 100 µM in [8]; 54.5 µM in [9]; > 100 µM in [10]; 69.8 µM in assay [11]; > 100 µM in assay [12].

These data come from PubChem BioAssay (NCI).
